From patent US9890111B2, “Crystal structure of bifunctional transglycosylase PBP1b from E. coli and inhibitors thereof” (Academia Sinica, priority 2008, dated 2018)
Converted amounts (≈) assume the structure as drawn.

Legend:
[1] = tested on: Staphylococcus aureus (ATCC29213, SA); assay: Minimal inhibitory concentration (MIC), SA; format: cell-based; details: for MIC: Staphylococcus aureus, ATCC29213, Staphylococcus aureus ATCC29213, read-out: MIC SA; for MIC SA: Staphylococcus aureus ATCC29213
Experimental: (§1) The minimal inhibitory concentration (MIC) of tested compounds was determined following the NCCLS standard. The experiments were conducted in 96-well microtiter plates using two-fold dilutions in Muller-Hilton broth with (Streptococcus pneumonia) or without blood (Bacillus subtilis, Enterococcus faecalis, Staphylococcus aureus, Escherichia coli, MRSA, Actinetobacter baumannii, Pseudomonas aeruginosa, Stenotrophomonas maltophilia, and Mycobacterium smegmatis). Exponentially growing cells at 5×10^5 cells/ml were incubated with test compounds at various concentrations. After an 18 h to 24 h incubation at 37° C., MIC was determined as the minimal concentration of the compound that prevents bacterial growth.

[2] = tested on: methicillin-resistant Staphylococcus aureus (ATCC33592, MRSA); assay: Minimal inhibitory concentration (MIC), MRSA; format: cell-based; details: methicillin-resistant Staphylococcus aureus ATCC33592; for MIC: Staphylococcus aureus, read-out: MIC MRSA
Experimental: as §1

[3] = tested on: Mycobacterium smegmatis (ATCC11565, MS); assay: Minimal inhibitory concentration (MIC), MS; format: cell-based; details: for MIC: Mycolicibacterium smegmatis, ATCC11565, Mycobacterium smegmatis ATCC11565, read-out: MIC MS; for MIC MS: Mycobacterium smegmatis ATCC11565
Experimental: as §1

[4] = target: T1, penicillin-binding protein 1b from E. coli (transglycosylase) (Escherichia coli, UniProt P02919); assay: Lipid II polymerization / transglycosylase (TG) activity assay; format: biochemical; details: for TG Activity at various concentration of cmpd: 50 μM: 50 μM compound; for TG Activity at various concentration of cmpd: 50 μM / TG Activity at various concentration of cmpd: 100 μM / TG Activity at various concentration of cmpd: 25 μM: TG activity remaining (0% = full inhibition); for TG Activity at various concentration of cmpd: 100 μM: 100 μM compound; for TG Activity at various concentration of cmpd: 25 μM: 25 μM compound; for remaining activity at 50 µM: read-out: TG Activity at various concentration of cmpd: 50 μM; for remaining activity at 100 µM: read-out: TG Activity at various concentration of cmpd: 100 μM
T1 construct: PBP1b[58-804] was amplified from E. coli genomic DNA and cloned into the expression vector pET15b; His6 (N, cleaved yes); made in house; host or cells: E. coli BL21(DE3)
Experimental: Lipid II polymerization assays were carried out by incubating 100 μM fluorophore-labeled lipid II and penicillin-binding protein 1b from E. coli in tubes containing 10 ng/μL N-acetyl muramidase in 50 mM Tris.HCl (pH 8.0), 10 mM MgCl2, 0.1% Triton X-100, 10% DMSO, and 15% MeOH for 30 minutes (Van Nieuwenhze et al. J Am Chem Soc 2002, 124, 3656.). The fluorophore can be dansyl chloride, NBD, BODIPY, fluorescein. Reaction supernatants were then injected onto an anion-exchange HPLC column (SAX1, Supelco Co.) and eluted with a linear gradient of ammonium acetate (20 mM to 0.5 M) in methanol. The eluant was monitored for fluorescence with λex=466 nm and λem=535 nm.
Purified protein was concentrated in 20 mM Tris-HCl (pH 8.0), 300 mM NaCl, and 1 mM DDM. Instead of using Dansyl lipid II, 6-(N-(7-nitrobenz-2-oxa-1,3-diazol-4-yl)amino) hexanoyl (NBD)-labeled Lipid II was prepared as described (Taubes G (2008) Science 321:356-361; Payne D J (2008) Science 321:1644-1645) and used as a substrate to measure TG enzymatic activity, with approach similar to what has been described previously (Holtje J V (1998) Microbiol Mol Biol Rev 62:181-203). Assays were carried out by using the following condition: NBD-Lipid II, 20 nM protein, 50 mM Tris HCl (pH 8.0), 10 mMCaCl2, 0.085% decyl PEG (Anatrace), and 15% MeOH at 37° C. for 0, 1, 3, 5, 7, 9, 20, and 30 min. The concentration of NBD-Lipid II was varied from 1 to 100 μM to determine the rate of the TG activity. After the reaction, 200 μM moenomycin was added to stop the reaction, and 13 μM muramidase (Sigma-Aldrich) was added to digest the TG products to result in NBD-Lipid II without lipid tails. The fluorescent signal decrease of substrate and increase of NBD-Lipid II without lipid tails were detected by anion-exchange column SAX1 (Supelco) on HPLC (Hitachi). The elution procedures was a linear gradient of ammonium acetate (20 mM to 1 M) in MeOH monitored at λexcitation=466 nm and λemission=535 nm. The kinetic parameter was estimated by following the Michaelis-Menten equation. To investigate the importance of transmembrane (TM) helix, PBP1b and PBP1bΔTM (residues Met-1 to Leu-87 were removed) were extracted with the buffer containing 20 mM Tris-HCl (pH 8.0), 300 mM NaCl, and 13 mM FOS-CHOLINE-14 (Anatrace). The protein was purified by nickel chelation chromatography in the presence of 1 mM DDM. The activity assay was carried out by using the following condition: 12 μM NBD-Lipid II, 20 nM protein, 50 mM Tris-HCl (pH 8.0), 10 mM CaCl2, 0.085% decyl PEG, and 15% MeOH at 37° C. for time 0, 1, 3, 5, 7, 9, 20, and 30 min. The initial velocity was used to compare the activity of full-length PBP1b and PBP1bΔTM.

T1 sequence (P02919 58-804): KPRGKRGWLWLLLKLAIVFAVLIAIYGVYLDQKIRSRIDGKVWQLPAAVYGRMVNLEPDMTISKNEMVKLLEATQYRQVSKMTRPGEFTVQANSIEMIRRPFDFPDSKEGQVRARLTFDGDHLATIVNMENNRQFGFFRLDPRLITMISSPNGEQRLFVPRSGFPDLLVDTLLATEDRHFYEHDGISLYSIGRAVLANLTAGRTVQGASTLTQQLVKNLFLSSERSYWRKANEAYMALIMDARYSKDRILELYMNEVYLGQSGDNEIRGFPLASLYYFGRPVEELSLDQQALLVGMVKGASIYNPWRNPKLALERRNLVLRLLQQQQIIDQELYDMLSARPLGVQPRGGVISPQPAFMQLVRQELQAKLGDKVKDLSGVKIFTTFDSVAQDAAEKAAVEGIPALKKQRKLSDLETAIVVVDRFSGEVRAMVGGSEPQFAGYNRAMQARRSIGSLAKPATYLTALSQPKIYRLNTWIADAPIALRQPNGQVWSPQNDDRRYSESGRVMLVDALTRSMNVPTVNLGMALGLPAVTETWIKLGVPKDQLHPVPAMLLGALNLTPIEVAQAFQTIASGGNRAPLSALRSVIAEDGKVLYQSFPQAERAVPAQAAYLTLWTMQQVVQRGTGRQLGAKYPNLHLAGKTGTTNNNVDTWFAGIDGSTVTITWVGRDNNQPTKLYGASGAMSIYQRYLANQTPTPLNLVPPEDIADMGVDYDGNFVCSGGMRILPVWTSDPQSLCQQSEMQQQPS

SMILES | MIC SA [1] [µg/mL] | MIC MRSA [2] [µg/mL] | MIC MS [3] [µg/mL] | TG Activity at various concentration of cmpd: 50 μM [4] [%] | TG Activity at various concentration of cmpd: 100 μM [4] [%] | further results
O=C(Nc1cc(Cl)ccc1Cl)c1cc(Cl)cc(Cl)c1O [Compound 141] | – | – | – | – | – | MIC [1]: 1 µg/mL (≈ 2.85 µM); MIC [2]: 0.5 µg/mL (≈ 1.42 µM); MIC [3]: 2 µg/mL (≈ 5.7 µM)
O=C(Nc1cc(Cl)c(Cl)c(Cl)c1)c1cc(Cl)cc(Cl)c1O [Compound 142] | 0.5 (≈ 1.3 µM) | 0.5 (≈ 1.3 µM) | 0.125 (≈ 0.324 µM) | – | – | –
Cc1ccc(C(=O)c2cc(Cl)cc(NC(=O)c3cc(Br)cc(Br)c3O)c2Cl)cc1 [Compound 145] | >4 | >4 | >4 | 100 | 0 | –
Cc1ccc(C(C)C)c(Oc2ccccc2NC(=O)c2cc(I)cc(I)c2O)c1 [Compound 201] | 4 (≈ 6.52 µM) | 2 (≈ 3.26 µM) | 8 (≈ 13 µM) | 0 | – | TG Activity at various concentration of cmpd: 25 μM [4]: 30%
Cc1ccc(C(C)C)c(Oc2cc(Cl)ccc2NC(=O)c2cc(Br)cc(Br)c2O)c1 [Compound 202] | 1 (≈ 1.81 µM) | 1 (≈ 1.81 µM) | 1 (≈ 1.81 µM) | 0 | – | TG Activity at various concentration of cmpd: 25 μM [4]: 20%
O=C(Nc1cccc(Cl)c1)c1cc(Br)cc(Br)c1O [Compound 203] | – | – | – | – | – | remaining activity at 50 µM [4]: 100%; remaining activity at 100 µM [4]: 100%; MIC [1]: 2 µg/mL (≈ 4.93 µM); MIC [2]: 2 µg/mL (≈ 4.93 µM); MIC [3]: 4 µg/mL (≈ 9.87 µM)
Cc1ccc(C(C)C)c(Oc2ccccc2NC(=O)c2cc(Br)cc(Br)c2O)c1 [Compound 204] | 1 (≈ 1.93 µM) | 4 (≈ 7.7 µM) | 8 (≈ 15.4 µM) | 0 | – | TG Activity at various concentration of cmpd: 25 μM [4]: 50%
Cc1ccc(C(C)C)cc1Oc1ccc(Cl)cc1NC(=O)c1cc(Cl)ccc1O [Compound 205] | 0.5 (≈ 1.16 µM) | 0.5 (≈ 1.16 µM) | 1 (≈ 2.32 µM) | 90 | – | –
Cc1ccc(C(C)C)cc1Oc1ccc(Cl)cc1NC(=O)c1cc(Cl)cc(Br)c1O [Compound 206] | 1 (≈ 1.96 µM) | 0.5 (≈ 0.982 µM) | 1 (≈ 1.96 µM) | 0 | – | TG Activity at various concentration of cmpd: 25 μM [4]: 60%
O=C(c1ccc(Cl)cc1)c1ccc(Oc2ccc(Cl)cc2)c(NC(=O)c2cc(I)cc(I)c2O)c1 [Compound 207] | 8 (≈ 11 µM) | 4 (≈ 5.48 µM) | 32 (≈ 43.8 µM) | 0 | – | TG Activity at various concentration of cmpd: 25 μM [4]: 20%
Cc1ccc(C(C)C)c(Oc2ccc(Cl)cc2NC(=O)c2cc(I)cc(I)c2O)c1 [Compound 208] | 4 (≈ 6.18 µM) | 0.5 (≈ 0.772 µM) | 2 (≈ 3.09 µM) | 0 | – | TG Activity at various concentration of cmpd: 25 μM [4]: 100%
Cc1ccc(C(C)C)c(Oc2ccc(Cl)cc2NC(=O)c2cc(Cl)cc(Cl)c2O)c1 [Compound 209] | 1 (≈ 2.15 µM) | 0.25 (≈ 0.538 µM) | 0.5 (≈ 1.08 µM) | 0 | – | TG Activity at various concentration of cmpd: 25 μM [4]: 60%
O=C(Nc1ccccc1Oc1ccccc1)c1cc(Br)cc(Br)c1O [Compound A1N2] | >32 | – | – | 100 | 100 | –
O=C(Nc1ccc(Cl)cc1)c1cc(Br)cc(Br)c1O [Compound A1N4] | 1 (≈ 2.47 µM) | – | – | 100 | – | –
O=C(Nc1cc(Cl)ccc1Oc1ccccc1)c1cc(Br)cc(Br)c1 [Compound A2N1] | >32 | – | – | 100 | 100 | –
O=C(Nc1ccccc1Oc1ccccc1)c1cc(Br)cc(Br)c1 [Compound A2N2] | >32 | – | – | 100 | 100 | –

SMILES | MIC SA [1] [µg/mL] | MIC MRSA [2] [µg/mL] | MIC MS [3] [µg/mL] | TG Activity at various concentration of cmpd: 50 μM [4] [%] | TG Activity at various concentration of cmpd: 100 μM [4] [%] | further results
Cc1ccc(NC(=O)c2cc(Br)cc(Br)c2)cc1Cl [Compound A2N3] | >32 | – | – | 100 | 100 | –
O=C(Nc1cc(Cl)ccc1Oc1ccccc1)c1ccccc1O [Compound A3N1] | 1 (≈ 2.94 µM) | – | – | 100 | 100 | –
O=C(Nc1ccccc1Oc1ccccc1)c1ccccc1O [Compound A3N2] | 8 (≈ 26.2 µM) | – | – | 100 | 100 | –
Cc1ccc(NC(=O)c2ccccc2O)cc1Cl [Compound A3N3] | – | – | – | – | – | remaining activity at 50 µM [4]: 100%; remaining activity at 100 µM [4]: 100%; MIC [1]: 4 µg/mL (≈ 15.3 µM)
O=C(Nc1ccc(Cl)cc1)c1ccccc1O [Compound A3N4] | – | – | – | – | – | remaining activity at 50 µM [4]: 100%; remaining activity at 100 µM [4]: 100%; MIC [1]: 8 µg/mL (≈ 32.3 µM)
O=C(Nc1ccc([N+](=O)[O-])cc1)c1ccccc1O [Compound A3N5] | – | – | – | – | – | remaining activity at 50 µM [4]: 100%; remaining activity at 100 µM [4]: 100%; MIC [1]: 4 µg/mL (≈ 15.5 µM)
COc1ccc(NC(=O)c2ccccc2O)cc1 [Compound A3N6] | – | – | – | – | – | remaining activity at 50 µM [4]: 100%; remaining activity at 100 µM [4]: 100%; MIC [1]: > 32 µg/mL
O=C(Nc1cc(Cl)ccc1Oc1ccccc1)c1ccccc1 [Compound A4N1] | >32 | – | – | 100 | 100 | –
Cc1ccc(NC(=O)c2ccccc2)cc1Cl [Compound A4N3] | >32 | – | – | 100 | 100 | –
O=C(Nc1cc(Cl)ccc1Oc1ccccc1)c1ccc(O)c(O)c1O [Compound A5N1] | 8 (≈ 21.5 µM) | – | – | 100 | 0 | –
O=C(Nc1ccccc1Oc1ccccc1)c1ccc(O)c(O)c1O [Compound A5N2] | 8 (≈ 23.7 µM) | – | – | 100 | 0 | –
Cc1ccc(NC(=O)c2ccc(O)c(O)c2O)cc1Cl [Compound A5N3] | – | – | – | – | – | remaining activity at 50 µM [4]: 100%; remaining activity at 100 µM [4]: 0%; MIC [1]: 4 µg/mL (≈ 13.6 µM)
O=C(Nc1cc(Cl)ccc1Oc1ccccc1)c1ccc(O)cc1 [Compound A6N1] | 16 (≈ 47.1 µM) | – | – | 100 | 100 | –
O=C(Nc1ccccc1Oc1ccccc1)c1ccc(O)cc1 [Compound A6N2] | >32 | – | – | 100 | 100 | –
Cc1ccc(NC(=O)c2ccc(O)cc2)cc1Cl [Compound A6N3] | 32 (≈ 122 µM) | – | – | 100 | 100 | –
